Experimental data from patent US20240315952A1, “PERSONAL CARE COMPOSITION” (Conopco, Inc., d/b/a UNILEVER, priority 2020, published 2024).

Test system: IL-1α
Assay: IL-1α expression in EpiKutis living skin equivalent (LSE) stressed with 1% SQOOH, human immunoassay kit
Assay type: cell-based
Conditions: levels are raw material wt %; for IL-1α level: EpiKutis 3D reconstructed human epidermis, sample applied topically, then 3 μL of 1% SQOOH, after 72 hours; for Inhibition: inhibition of IL-1α vs 1% SQOOH control, EpiKutis LSE, 72 hours
Procedure: EpiKutis® living skin equivalent (LSE), is a 3D reconstructed human epidermis model with Chinese human keratinocytes through air-liquid interface culture in a defined serum free medium, supplied by supplied by Biocell (Xi'an, China). Squalene monohydroperoxide (SQOOH), a stress surrogate, was prepared in house, by subjecting squalene to solar irradiation in the presence of a sensitizer.
The SQOOH was diluted using squalene. The moringa oil was dissolved in DMSO (dimethyl sulfoxide) at a concentration of 100 mM to form a stock solution. The samples in Table 1 were prepared accordingly by diluting the materials except moringa oil and/or stock solution with PBS (phosphate-buffered saline) to the desired levels as indicated in Table 1 before use for further experiment.
The sample was applied topically to the LSE followed by application of 3 μL of 1% SQOOH. The medium was then refreshed with interval of 24 hours. After 72 hours, the tissues were collected for histology and to test the extent of viability. The IL-1a expression was evaluated using a human immunoassay kit from R&D systems (Cat. DLA 50) and tested following the manufacturer's instructions.

Compound | IL-1α level | Inhibition
NC(=O)c1cccnc1 [Sample 5, Niacinamide] | 6.6 ± 0.63 pg/mL | 25.33%
NC(=O)c1cccnc1 [Sample 6, Niacinamide] | 5.8 ± 0.60 pg/mL | 33.57%
